Counter-ions that a name gives are not always drawn.
Assay: Preservation stability of the crystal at 40° C/75% RH for 6 months (water content by Karl-Fischer, content by HPLC)
Assay type: physicochemical
Conditions: for content (%) (converted into dehydrated form): HPLC method; for water content (%): Karl-Fischer method
Procedure: A crystal of 3-[5-(4-carbamimidoyl-2-fluorophenoxy)carbonyl-2-thienyl]-2,2-dimethylpropanoic acid hydrochloride obtained by the method of Example 3 was preserved for 6 months under 40° C/75% RH conditions. […] Therefore, the crystalline form is useful as a crystalline form of a drug substance for pharmaceutical products.
The water content was measured by the Karl-Fischer method, and the content was measured by the HPLC method using a column charged with octadecylsilyl silica gel for liquid chromatography.

content (%) (converted into dehydrated form) (6 months at 40° C/75% RH): 99.5%
water content (%) (6 months at 40° C/75% RH): 0.1%
preservation stability of the crystal (40° C./75% RH for 6 months): stable
content (%) (converted into dehydrated form) (start): 99.5%
water content (%) (start): 0.1%
Structure (SMILES): CC(C)(Cc1ccc(C(=O)Oc2ccc(C(=N)N)cc2F)s1)C(=O)O [Example 3, 3-[5-(4-carbamimidoyl-2-fluorophenoxy)carbonyl-2-thienyl]-2,2-dimethylpropanoic acid hydrochloride]
